Assay results taken from patent publication US5840684A, “Glycopeptide antibiotic derivatives” (Eli Lilly and Company, priority 1995, dated 1998).
Values after ≈ are worked out from the molar mass of the structure shown.

Columns and labels:
[1] = test system: Staphylococcus aureus SA1199A; test: broth micro-dilution MIC; type: cell-based
Protocol: (§1) The MIC's were determined using a standard broth micro-dilution assay.

[2] = test system: Entercoccus faecium 276; test: broth micro-dilution MIC; type: cell-based
Protocol: as §1

[3] = test system: Staphylococcus aureus SA1199; test: broth micro-dilution MIC; type: cell-based
Protocol: as §1

[4] = test system: Entercoccus faecium 180-1; test: broth micro-dilution MIC; type: cell-based
Protocol: as §1

[5] = test system: Staphylococcus aureus 491; test: broth micro-dilution MIC; type: cell-based
Protocol: as §1

[6] = test system: Staphylococcus aureus 446; test: broth micro-dilution MIC; type: cell-based
Protocol: as §1

[7] = test system: Staphylococcus aureus 489; test: broth micro-dilution MIC; type: cell-based
Protocol: as §1

[8] = test system: Staphylococcus aureus X778; test: broth micro-dilution MIC; type: cell-based
Protocol: as §1

[9] = test system: Staphylococcus aureus X400; test: broth micro-dilution MIC; type: cell-based
Protocol: as §1

[10] = test system: Streptococcus pyogenes C203; test: broth micro-dilution MIC; type: cell-based
Protocol: as §1

[11] = test system: Staphylococcus aureus S13E; type: cell-based
Protocol: as §1

[12] = test system: Staphylococcus aureus SA1199B; type: cell-based
Protocol: as §1

[13] = test system: vancomycin-resistant enterococci; test: broth micro-dilution, mean geometric MIC; type: cell-based, Enterococcus faecium and Enterococcus faecalis; conditions: enterococci, 24-hour incubation
[14] = test system: Enterococcus gallinarum 245; test: broth micro-dilution MIC; type: cell-based; conditions: Enterococcus gallinarum 245
Protocol: (§2) The formula I compounds have in vitro and in vivo activity against Gram-positive pathogenic bacteria. The MIC's were determined using a standard broth micro-dilution assay.

[15] = test system: Entercoccus faecium 180; test: broth micro-dilution MIC; type: cell-based; conditions: Entercoccus faecium 180
Protocol: as §2

[16] = test system: Staphylococcus haemolyticus 105; test: broth micro-dilution MIC; type: cell-based
Protocol: as §2

[17] = test system: Haemophilus influenzae RD; test: broth micro-dilution MIC; type: cell-based; conditions: Haemophilus influenzae RD
Protocol: as §2

[18] = test system: Streptococcus pneumoniae P1; test: broth micro-dilution MIC; type: cell-based
Protocol: as §2

[19] = test system: Entercoccus faecium 2041; test: broth micro-dilution MIC; type: cell-based; conditions: Entercoccus faecium 2041
Protocol: as §2

[20] = test system: Staphylococcus haemolyticus 415; test: broth micro-dilution MIC; type: cell-based
Protocol: as §2

[21] = test system: vancomycin-susceptible enterococci; test: broth micro-dilution, mean geometric MIC; type: cell-based, Enterococcus faecium and Enterococcus faecalis; conditions: enterococci, 24-hour incubation
[22] = test system: Streptococcus pyogenes; test: mouse protection, experimentally-induced infection; type: in vivo; conditions: mice infected with Streptococcus pyogenes, two doses
[23] = test system: Streptococcus pneumoniae; test: mouse protection, experimentally-induced infection; type: in vivo; conditions: mice infected with Streptococcus pneumoniae, two doses
[24] = test system: Staphylococcus aureus 447; test: broth micro-dilution MIC; type: cell-based
Protocol: as §1

[25] = test system: Staphylococcus epidermidis 270; test: broth micro-dilution MIC; type: cell-based
Protocol: as §2

Row | SMILES | MIC [1] [µg/mL] | MIC [2] [µg/mL] | MIC [3] [µg/mL] | MIC [4] [µg/mL] | MIC [5] [µg/mL] | MIC [8] [µg/mL] | MIC [10] [µg/mL] | MIC [11] [µg/mL] | mean geometric MIC, Vancomycin Resistant Strains [13] [µg/mL] | MIC [14] [µg/mL] | MIC [15] [µg/mL] | MIC [16] [µg/mL] | MIC [18] [µg/mL] | MIC [19] [µg/mL] | MIC [20] [µg/mL] | mean geometric MIC, Vancomycin Sensitive Strains [21] [µg/mL] | ED50 [22] [mg/kg/2] | ED50 [23] [mg/kg/2] | MIC [24] [µg/mL] | MIC [25] [µg/mL] | also measured
1 | CNC(CC(C)C)C(=O)NC1C(=O)NC(CC(N)=O)C(=O)NC2C(=O)NC3C(=O)NC(C(=O)NC(C(=O)O)c4cc(O)cc(O)c4-c4cc3ccc4O)C(OC3CC(C)(N)C(O)C(C)O3)c3ccc(c(Cl)c3)Oc3cc2cc(c3OC2OC(CO)C(O)C(O)C2OC2CC(C)(NCc3ccc(Cc4ccccc4)c(OC)c3)C(O)C(C)O2)Oc2ccc(cc2Cl)C1O (stereo not drawn) [Compound 104] | ≤ 0.06 | ≤ 0.06 | 2 (≈ 1.11 µM) | ≤ 0.06 | ≤ 0.06 | ≤ 0.06 | ≤ 0.06 | ≤ 0.06 | 1.2 | 2 (≈ 1.11 µM) | ≤ 0.06 | 2 (≈ 1.11 µM) | ≤ 0.06 | ≤ 0.06 | 2 (≈ 1.11 µM) | 0.062 | 0.12 | 0.041 | – | – | MIC [6]: ≤ 0.06 µg/mL; MIC [7]: ≤ 0.06 µg/mL; MIC [9]: ≤ 0.06 µg/mL; MIC [12]: 0.125 µg/mL (≈ 0.0693 µM); MIC [17]: 32 µg/mL (≈ 17.8 µM)
2 | CCCc1ccc(-c2ccc(CNC3(C)CC(OC4C(Oc5c6cc7cc5Oc5ccc(cc5Cl)C(OC5CC(C)(N)C(O)C(C)O5)C5NC(=O)C(NC(=O)C7NC(=O)C(CC(N)=O)NC(=O)C(NC(=O)C(CC(C)C)NC)C(O)c7ccc(c(Cl)c7)O6)c6ccc(O)c(c6)-c6c(O)cc(O)cc6C(C(=O)O)NC5=O)OC(CO)C(O)C4O)OC(C)C3O)cc2)cc1 (stereo not drawn) [Compound 107] | ≤ 0.06 | 1 (≈ 0.555 µM) | 1 (≈ 0.555 µM) | ≤ 0.06 | 1 (≈ 0.555 µM) | 0.5 (≈ 0.278 µM) | ≤ 0.06 | 2 (≈ 1.11 µM) | 0.59 | 2 (≈ 1.11 µM) | 0.125 (≈ 0.0694 µM) | 2 (≈ 1.11 µM) | ≤ 0.06 | 0.5 (≈ 0.278 µM) | 2 (≈ 1.11 µM) | 0.082 | 0.27 | 0.092 | 1 (≈ 0.555 µM) | 0.5 (≈ 0.278 µM) | MIC [6]: 2 µg/mL (≈ 1.11 µM); MIC [7]: 1 µg/mL (≈ 0.555 µM); MIC [9]: 1 µg/mL (≈ 0.555 µM); MIC [12]: 2 µg/mL (≈ 1.11 µM)
3 | CNC(CC(C)C)C(=O)NC1C(=O)NC(CC(N)=O)C(=O)NC2C(=O)NC3C(=O)NC(C(=O)NC(C(=O)O)c4cc(O)cc(O)c4-c4cc3ccc4O)C(OC3CC(C)(N)C(O)C(C)O3)c3ccc(c(Cl)c3)Oc3cc2cc(c3OC2OC(CO)C(O)C(O)C2OC2CC(C)(NCc3cccc(Oc4cccc(C(F)(F)F)c4)c3)C(O)C(C)O2)Oc2ccc(cc2Cl)C1O (stereo not drawn) [Compound 111] | 0.5 (≈ 0.271 µM) | 0.5 (≈ 0.271 µM) | 2 (≈ 1.09 µM) | ≤ 0.06 | 2 (≈ 1.09 µM) | 2 (≈ 1.09 µM) | ≤ 0.06 | 1 (≈ 0.543 µM) | 0.71 | 4 (≈ 2.17 µM) | ≤ 0.06 | 1 (≈ 0.543 µM) | ≤ 0.06 | ≤ 0.06 | 4 (≈ 2.17 µM) | 0.031 | 0.099 | 0.084 | 1 (≈ 0.543 µM) | 1 (≈ 0.543 µM) | MIC [6]: 2 µg/mL (≈ 1.09 µM); MIC [7]: 1 µg/mL (≈ 0.543 µM); MIC [9]: 1 µg/mL (≈ 0.543 µM); MIC [12]: 1 µg/mL (≈ 0.543 µM)
4 | CNC(CC(C)C)C(=O)NC1C(=O)NC(CC(N)=O)C(=O)NC2C(=O)NC3C(=O)NC(C(=O)NC(C(=O)O)c4cc(O)cc(O)c4-c4cc3ccc4O)C(OC3CC(C)(N)C(O)C(C)O3)c3ccc(c(Cl)c3)Oc3cc2cc(c3OC2OC(CO)C(O)C(O)C2OC2CC(C)(NCc3ccc(OC(F)(F)C(F)F)cc3)C(O)C(C)O2)Oc2ccc(cc2Cl)C1O (stereo not drawn) [Compound 121] | ≤ 0.06 | ≤ 0.06 | 1 (≈ 0.556 µM) | ≤ 0.06 | ≤ 0.06 | 0.5 (≈ 0.278 µM) | ≤ 0.06 | ≤ 0.06 | 1.0 | 2 (≈ 1.11 µM) | ≤ 0.06 | 2 (≈ 1.11 µM) | ≤ 0.06 | ≤ 0.06 | 2 (≈ 1.11 µM) | 0.063 | 0.041 | 0.047 | 0.5 (≈ 0.278 µM) | 1 (≈ 0.556 µM) | MIC [6]: 2 µg/mL (≈ 1.11 µM); MIC [7]: 1 µg/mL (≈ 0.556 µM); MIC [12]: 0.25 µg/mL (≈ 0.139 µM); MIC [17]: 16 µg/mL (≈ 8.9 µM)
5 | CNC(CC(C)C)C(=O)NC1C(=O)NC(CC(N)=O)C(=O)NC2C(=O)NC3C(=O)NC(C(=O)NC(C(=O)O)c4cc(O)cc(O)c4-c4cc3ccc4O)C(OC3CC(C)(N)C(O)C(C)O3)c3ccc(c(Cl)c3)Oc3cc2cc(c3OC2OC(CO)C(O)C(O)C2OC2CC(C)(NCc3cccc(OCC4CCCCC4)c3)C(O)C(C)O2)Oc2ccc(cc2Cl)C1O (stereo not drawn) [Compound 123] | – | 0.25 (≈ 0.139 µM) | 2 (≈ 1.11 µM) | ≤ 0.06 | ≤ 0.06 | 1 (≈ 0.557 µM) | ≤ 0.06 | ≤ 0.06 | 1.0 | 1 (≈ 0.557 µM) | 0.25 (≈ 0.139 µM) | 2 (≈ 1.11 µM) | ≤ 0.06 | ≤ 0.06 | 1 (≈ 0.557 µM) | 0.041 | 0.076 | 0.039 | 1 (≈ 0.557 µM) | 1 (≈ 0.557 µM) | MIC [6]: 2 µg/mL (≈ 1.11 µM); MIC [7]: 2 µg/mL (≈ 1.11 µM); MIC [9]: 1 µg/mL (≈ 0.557 µM); MIC [12]: 0.5 µg/mL (≈ 0.279 µM); MIC [17]: 16 µg/mL (≈ 8.91 µM)
6 | C=CCCCCCCCCCNC1(C)CC(OC2C(Oc3c4cc5cc3Oc3ccc(cc3Cl)C(OC3CC(C)(N)C(O)C(C)O3)C3NC(=O)C(NC(=O)C5NC(=O)C(CC(N)=O)NC(=O)C(NC(=O)C(CC(C)C)NC)C(O)c5ccc(c(Cl)c5)O4)c4ccc(O)c(c4)-c4c(O)cc(O)cc4C(C(=O)O)NC3=O)OC(CO)C(O)C2O)OC(C)C1O (stereo not drawn) [Compound 204] | – | ≤ 0.06 | – | – | 0.5 (≈ 0.287 µM) | 0.5 (≈ 0.287 µM) | ≤ 0.06 | 0.5 (≈ 0.287 µM) | 0.71 | – | – | 0.5 (≈ 0.287 µM) | ≤ 0.06 | ≤ 0.06 | – | 0.031 | < 0.031 | 0.046 | ≤ 0.06 | ≤ 0.06 | MIC [17]: 2 µg/mL (≈ 1.15 µM)
7 | CNC(CC(C)C)C(=O)NC1C(=O)NC(CC(N)=O)C(=O)NC2C(=O)NC3C(=O)NC(C(=O)NC(C(=O)O)c4cc(O)cc(O)c4-c4cc3ccc4O)C(OC3CC(C)(N)C(O)C(C)O3)c3ccc(c(Cl)c3)Oc3cc2cc(c3OC2OC(CO)C(O)C(O)C2OC2CC(C)(NCc3ccc(-c4ccc(Br)cc4)cc3)C(O)C(C)O2)Oc2ccc(cc2Cl)C1O (stereo not drawn) [Compound 230] | ≤ 0.06 | ≤ 0.06 | – | ≤ 0.06 | – | – | ≤ 0.06 | 0.5 (≈ 0.272 µM) | 0.35 | 4 (≈ 2.18 µM) | ≤ 0.06 | 1 (≈ 0.544 µM) | ≤ 0.06 | ≤ 0.06 | 2 (≈ 1.09 µM) | 0.031 | 0.046 | 0.078 | 0.5 (≈ 0.272 µM) | 0.5 (≈ 0.272 µM) | MIC [9]: 0.5 µg/mL (≈ 0.272 µM); MIC [17]: 32 µg/mL (≈ 17.4 µM)
